Measured values from PMC6278385, “Preclinical Pharmacokinetics of C118P, a Novel Prodrug of Microtubules Inhibitor and Its Metabolite C118 in Mice, Rats, and Dogs” (Molecules, 2018).
Like-named read-outs stand apart in the source and are kept apart here. Each block holds one molecule with its values, some of them ahead of it.

Legend:
[1] = Metabolic stability in liver microsomes; assay type: in vitro ADME, monkey
Procedure: The in vitro metabolic stability of C118P and C118 were estimated in mice, rat, dog, monkey, and human liver microsomes (Research Institute for Liver Diseases Co. Ltd (Shanghai, China)). The incubation mixture contains C118P or C118, NADP (1.0 mM), G-6-P (10 mM), PDH (2 units/mL), MgCl2 (10 mM), and liver microsomes (mice, rats, dogs, monkeys, or humans, 1.0 mg protein/mL) in phosphate buffer. A total of 200 μL of the mixture was removed and quenched with 600 μL acetonitrile in an ice bath at 0, 15, 30, 60, 120, and 240 min after the addition of NADPH.
CLint, in vitro (the in vitro intrinsic clearance, Equation (1)) was calculated from the t1/2 of C118 disappearance, where Cprotein is the protein concentration during the incubation, and t1/2 was determined by the slope (k) of the log-linear regression analysis of the concentration versus time profiles; thus, t1/2 = ln2/k. […] The in vivo hepatic clearance (CLH, Equation (3)) was then calculated by using CLint and hepatic blood flow, Q ([…] mL·min^−1·kg^−1 in rats, dogs, monkey, and humans, respectively), in the well-stirred liver model disregarding all binding. The hepatic extraction ratio was calculated as CLH divided by Q. CLint, in vitro = (0.693/t1/2) × (1/Cprotein)(1) CLint = CLint, in vitro × (mg protein/g liver weight) × (gliver weight/kg body weight)(2) CLH = (Q × CLint)/(Q + CLint)(3)

[2] = PK in tumor-bearing nude mice after i.v. C118P; assay type: in vivo, nude mice (BALB/cA) implanted with NCI-H460 tumor; details: for concentration at 2 min: read-out: C2min
Procedure: The nude mice (BALB/cA) implanted with NCI-H460 tumor were provided by Shanghai Institute of Materia Medica. A total of 36 mice were divided into 9 groups with four animals in each group. After fasting overnight with free access to water, the mice were treated with 75 mg/kg C118P by i.v. The blood samples were collected at 2, 10, 20, 40 min, 1, 2, 4, 8, 12 h after treatment and the mice were anaesthetized and decapitated to obtain the blood and tumor tissue. Blood, brain, muscle, ovary, and lung from mice in the PK study were collected at 10 min, 1, 4, and 12 h. Tissues were cleaned by absorbent filter paper to remove the blood. Bloods were centrifuged at 10,000× g for 5 min. Each tissue (0.2 g) was homogenized with 2 mL water. The plasma samples and the homogenates were then processed and determined by the method described above. The concentration was determined by the calibration curve and the actual concentration was corrected by multiplying by 10 according to the dilution times.
(§1) The area under the plasma-concentration-versus-time curve from 0 to infinite (AUC0-inf), the elimination half-life (t1/2), the systemic plasma clearance (CL) and the volume of distribution (V) were calculated by non-compartmental analysis with WinNonlin software v6.3 (Pharsight Corporation, St. Louis, MO 63144, USA) from the plasma concentration data of C118P and C118, respectively. The instantaneous concentrations after intravenous to rats (C30s) or dogs (C2min) were obtained directly from the observed data.

[3] = PK in dogs after i.v. C118P; assay type: in vivo, beagle dogs; details: plasma; for concentration at 2 min / AUC(0-inf) / half-life / clearance: both sexes, beagle, dog; for concentration at 2 min: read-out: C2min; for AUC(0-inf) / half-life / clearance: iv
Procedure: The beagle dogs were purchased from Nanjing Ya Dong experimental animal research center. Twelve beagle dogs with half males and half females were divided randomly into two groups. C118P was dissolved in saline to different concentrations for intravenous administration. After fasting overnight with free access to water, the dogs were administered a single intravenous dose of 1 or 3 mg/kg C118P. After a one-week wash-out period, the group of 1 mg/kg were administered another single intravenous dose of 6 mg/kg C118P. Blood samples (approximately 1 mL) were collected in EDTA-coated tubes at times of 0, 2, 5, 10, 20, 40 min, 1, 2, 4, 8, 12 and 24 h. Plasma was prepared by centrifugation at 8000 rpm for 5 min, and the plasma samples were then prepared and determined by the method described above.
as §1

[4] = Tissue distribution in rats; assay type: in vivo; details: for concentration at 10 min: both sexes, Sprague-Dawley (SD), rat, iv, 10 min after i.v. 20 mg/kg of C118P
Procedure: Eighteen rats (weight 220–260 g) with half males and half females were randomly assigned to there groups to carry out a tissue distribution study and fasted overnight. Blood and tissue samples, including the brain, skin, muscle, fat, testicle/ovary, pancreas, spleen, kidney, stomach, small intestine, heart, liver, lung, thymus, and thighbone were collected at 10 min, 1, and 4 h after intravenous administration (20 mg/kg). Blood was centrifuged for plasma samples. Tissue samples were rinsed with water to remove the blood and blotted dry with filter paper. An accurately-weighed amount of the tissue sample (0.2 g) or the entire organ for which weight less than 0.2 g was individually homogenized with EDTA solution (40 mg/mL, 2.0 mL). The left thigh bone was crushed and then soaked overnight in methanol-EDTA solution (1:1, v/v). A volume of 50 μL of homogenate or soak solution was prepared by protein precipitation and determined by the method described above. Tissue weights were used for calculating the concentrations (ng/g) of C118P and C118 in tissues.

[5] = nude mice, tumor, i.v. C118P 75 mg/kg, n = 4
[6] = dogs, i.v. C118P 1 mg/kg, n = 6
[7] = dogs, i.v. C118P 3 mg/kg, n = 6
[8] = dogs, i.v. C118P 6 mg/kg, n = 6
[9] = in vivo, dogs, i.v. C118P 1 mg/kg, n = 6
[10] = in vivo, dogs, i.v. C118P 3 mg/kg, n = 6
[11] = in vivo, dogs, i.v. C118P 6 mg/kg, n = 6

- CLint, in vitro ([1]; monkey liver microsomes): 318.6 μL·min^−1·mg^−1 Protein
- half-life ([1]; monkey liver microsomes, 1.0 mg protein/mL, C118 disappearance): 2.2 min
- CLint ([1]; monkey, scaled from CLint, in vitro): 252.8 mL/min/kg
- Extrapolated CLH ([1]; monkey, well-stirred liver model): 37.5 mL/min/kg
- concentration at 2 min ([2]; BALB/cA nude, mouse, intravenous, nude mice, plasma, i.v. C118P 75 mg/kg, n = 4): 42500 ng/mL
- concentration at 2 min ([2]; BALB/cA nude, mouse, intravenous, nude mice, tumor, i.v. C118P 75 mg/kg, n = 4): 13800 ng/g
- half-life ([2]; BALB/cA nude, mouse, iv, nude mice, plasma, i.v. C118P 75 mg/kg, n = 4): 58.2 ± 6 min
- AUC(0-inf) ([2]; BALB/cA nude, mouse, iv, nude mice, plasma, i.v. C118P 75 mg/kg, n = 4, read-out: AUC0-inf): 13400 ng·h/mL
- half-life ([2]; BALB/cA nude, mouse, iv, nude mice, tumor, i.v. C118P 75 mg/kg, n = 4): 222 ± 88.8 min
- clearance ([2]; BALB/cA nude, mouse, plasma, iv, 75 mg/kg, mice, in vivo, compared with extrapolated CLH, read-out: Observed CL): 88.8 mL/min/kg
- AUC(0-inf) [2, 5]: 73,027.8 ± 24,951.2 ng × h/g
- concentration at 2 min ([3]; intravenous, dogs, i.v. C118P 1 mg/kg, n = 6): 252 ± 70.5 ng/mL
- concentration at 2 min ([3]; intravenous, dogs, i.v. C118P 3 mg/kg, n = 6): 861 ± 259 ng/mL
- concentration at 2 min ([3]; intravenous, dogs, i.v. C118P 6 mg/kg, n = 6): 1700 ± 509 ng/mL
- AUC(0-inf) [3, 6]: 214 ± 79 ng·h/mL
- half-life [3, 6]: 29.4 ± 10.8 min
- AUC(0-inf) [3, 7]: 910 ± 295 ng·h/mL
- half-life [3, 7]: 63 ± 16.2 min
- AUC(0-inf) [3, 8]: 1830 ± 320 ng·h/mL
- half-life [3, 8]: 50.4 ± 15 min
- clearance ([3]; in vivo, compared with extrapolated CLH, read-out: Observed CL): 54 mL/min/kg
- tissue concentration in most tissues ([4]; 4 h after i.v. 20 mg/kg of C118P, LLOQ 50 ng/g for tissues): below or slightly higher than LLOQ
- concentration at 10 min ([4]; heart, read-out: tissue concentration in heart): 6340 ± 4130 ng/g
- concentration at 10 min ([4]; kidney, read-out: tissue concentration in kidney): 7640 ± 3410 ng/g
- concentration at 10 min ([4]; lung, read-out: tissue concentration in lung): 12900 ng/g
SMILES: COc1cc(OC)cc(-c2nc[nH]c2-c2ccc(OC)c(O)c2)c1 [C118]

SMILES: COc1cc(OC)cc(-c2nc[nH]c2-c2ccc(OC)c(OP(=O)([O-])[O-])c2)c1.[Na+].[Na+] [C118P]
- stability in liver microsomes ([1]; monkey liver microsomes (Figure S1)): quite stable
- half-life ([2]; BALB/cA nude, mouse, in vivo, iv, 75 mg/kg, nude mice, plasma, i.v. C118P 75 mg/kg, n = 4): 118 ± 64.2 min
- half-life ([2]; BALB/cA nude, mouse, in vivo, iv, 75 mg/kg, nude mice, tumor, i.v. C118P 75 mg/kg, n = 4): 69.6 ± 45.6 min
- AUC(0-inf) ([2]; BALB/cA nude, mouse, in vivo, iv, nude mice, plasma, i.v. C118P 75 mg/kg, n = 4, read-out: AUC0-inf): 13500 ng·h/mL
- clearance ([2]; BALB/cA nude, mouse, in vivo, iv, nude mice, plasma, i.v. C118P 75 mg/kg, n = 4, read-out: CL (converted)): 96.9 mL/min/kg
- concentration at 2 min ([2]; BALB/cA nude, mouse, in vivo, nude mice, plasma, i.v. C118P 75 mg/kg, n = 4): 106000 ng/mL
- concentration at 2 min ([2]; BALB/cA nude, mouse, in vivo, nude mice, tumor, i.v. C118P 75 mg/kg, n = 4): 292 ± 80.2 ng/g
- V ([2]; nude mice, plasma, i.v. C118P 75 mg/kg, n = 4): 15,404.8 ± 7499.6 mL/kg
- AUC(0-inf) [2, 5]: 217.7 ± 9.3 ng·h/g
- AUC(0-inf) [3, 9]: 1700 ± 346 ng·h/mL
- half-life [3, 9]: 13.2 ± 5.4 min
- clearance ([3]; in vivo, dogs, i.v. C118P 1 mg/kg, n = 6, read-out: CL (converted)): 10.2 mL/min/kg
- AUC(0-inf) [3, 10]: 5300 ± 1700 ng·h/mL
- half-life [3, 10]: 35.4 ± 9.6 min
- clearance ([3]; in vivo, dogs, i.v. C118P 3 mg/kg, n = 6, read-out: CL (converted)): 10.1 mL/min/kg
- AUC(0-inf) [3, 11]: 8530 ± 1550 ng·h/mL
- half-life [3, 11]: 23.4 ± 7.2 min
- clearance ([3]; in vivo, dogs, i.v. C118P 6 mg/kg, n = 6, read-out: CL (converted)): 12.1 mL/min/kg
- concentration at 2 min [3, 9]: 12300 ng/mL
- concentration at 2 min [3, 10]: 34700 ng/mL
- concentration at 2 min [3, 11]: 64200 ng/mL
- V [3, 6]: 0.1817 ± 0.0513 L/kg
- V [3, 7]: 0.5092 ± 0.162 L/kg
- V [3, 8]: 0.3985 ± 0.0871 L/kg
- tissue concentration ([4]; 10 min, 1 h and 4 h after i.v. 20 mg/kg of C118P, LLOQ 50 ng/g for tissues): below or slightly higher than the LLOQ
